# Source: BindingDB's records for doi:10.1021/jm00392a014 (1987)
# Target: Cytosol aminopeptidase (Sus scrofa) (UniProt P28839)
# Assay: Compound was tested for inhibition of Leucine aminopeptidase isolated from porcine kidney; Inhibitor exhibits slow-binding behavior(k on <=1000Me-1Se-1)
# Chain of Cytosol aminopeptidase (Sus scrofa) (P28839 whole entry, looked up): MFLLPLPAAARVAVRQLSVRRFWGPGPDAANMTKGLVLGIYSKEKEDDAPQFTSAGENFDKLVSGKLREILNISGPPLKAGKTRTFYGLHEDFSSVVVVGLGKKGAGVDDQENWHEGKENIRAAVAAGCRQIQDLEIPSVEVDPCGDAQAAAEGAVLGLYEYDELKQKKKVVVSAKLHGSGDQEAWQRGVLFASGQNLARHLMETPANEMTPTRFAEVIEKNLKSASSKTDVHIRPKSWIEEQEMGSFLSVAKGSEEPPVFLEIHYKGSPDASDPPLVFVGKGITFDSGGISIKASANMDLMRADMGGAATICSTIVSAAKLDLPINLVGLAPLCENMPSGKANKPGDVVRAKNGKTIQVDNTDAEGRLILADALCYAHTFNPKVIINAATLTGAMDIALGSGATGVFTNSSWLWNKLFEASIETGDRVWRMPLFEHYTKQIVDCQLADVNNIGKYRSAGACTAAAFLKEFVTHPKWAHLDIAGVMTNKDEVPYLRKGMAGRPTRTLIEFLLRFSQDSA
row,Structure (SMILES),Ki [µM]
1,C[C@H](N)P(=O)(O)O [1-Ammonium-ethanephosphonic acid anion],240
2,CC(C)CC(N)P(N)(=O)C(=O)N[C@@H](CC(C)C)C(=O)O (stereo partly drawn) [1-[amino({[(1S)-1-carboxylateanion-3-methylbutyl]amino}carbonyl)phosphoryl]-3-methylbutan-1-aminium],40
3,CCCCCC(N)P(=O)(O)O (centres undefined) [1-aminohexylphosphonic acid],1
4,COP(=O)(C(=O)N[C@@H](CC(C)C)C(=O)O)C(N)CC(C)C (stereo partly drawn) [2-(1-Ammonium-3-methylbutylmethoxyphosphorylcarbonylamino)-4-methyl-(2S)-pentanoate],1650
5,CC(C)CCN [3-Methyl-butylamine],> 50000
6,COP(=O)(O)C(N)Cc1ccccc1 (centres undefined) [(1-Ammonium-2-phenyl-ethyl)-phosphonic acid monomethyl ester],43
7,COP(=O)(O)C(N)CC(C)C (centres undefined) [(1-Ammonium-3-methyl-butyl)-phosphonic acid monomethyl ester],320
8,CC(C)CCP(=O)(O)O [(3-Methyl-butyl)-phosphonic acid],775
9,N[C@H](Cc1ccccc1)P(=O)(O)O [(S)-1-Ammonium-2-phenyl-ethanephosphonic acid anion],15.4
10,NCP(=O)(O)O [Ammonium-methanephosphonic acid anion],1040
11,N[C@@H](Cc1ccccc1)P(=O)(O)O [[(1R)-1-amino-2-phenylethyl]phosphonic acid],0.42

# Target: not listed separately
# Assay: as above
row,Structure (SMILES),Ki [µM]
1,CCCCCCCC(N)P(=O)(O)O (centres undefined) [1-Ammonium-octane-1-phosphonic acid anion],0.47
2,CC(C)C(N)P(=O)(O)O (centres undefined) [1-amino-2-methylpropylphosphonic acid],1.2
3,CCC(N)P(=O)(O)O (centres undefined) [1-aminopropylphosphonic acid],3.6
